Measured values: PMC9569971, “New Oxazolo[5,4-d]pyrimidines as Potential Anticancer Agents: Their Design, Synthesis, and In Vitro Biological Activity Research” (International Journal of Molecular Sciences, 2022)
Entries after “also recorded” stand apart in the source; their conditions may differ. Where two headings read alike, the source gives them in different places.

What was measured:
[1] = MTT viability assay, L929; assay type: cell-based, murine; conditions: mouse, L929 fibroblasts, tested 1–500 µM
Description: (§1) When the confluence was greater than 70%, adherent cell lines were detached from the bottle surface with a TrypLE solution and then used in assays or reduced. The cells were collected into centrifuge tubes and centrifuged at 1000× g for 5 min at room temperature. The supernatant was removed to dry. The cell pellets were then resuspended in an appropriate medium. The cells were counted using a Bürker chamber and resuspended in 96-well plates to a cell density of 10,000 cells per well for MTT assay. For the rhodamine accumulation test and the detection of apoptosis assay, cells were seeded at a density of 30,000 per well. In the migration assay, cells were seeded at a density of 20,000 per well, and monolayer formation was awaited.
(§2) In this study, normal human dermal fibroblasts (NHDFs), breast cancer cells (MCF7), human lung adenocarcinoma cells (A549), murine fibroblasts (L929), colon adenocarcinoma cells (HT29), and colorectal adenocarcinoma cells (LoVo) were used. All cell lines were cultured in the recommended media. […] The human lung adenocarcinoma cell line A549 and breast cancer cell line MCF-7 were obtained from the ECACC. These cell lines were cultured in Eagle’s minimal essential medium (MEM). Murine fibroblast L929 (Sigma-Aldrich, Merck Group, Headquarters, Darmstadt, Germany; the European Collection of Authenticated Cell Cultures—ECACC) cells were grown in DMEM. […] All media were supplemented with 10% FBS and 100 µg/mL of penicillin–streptomycin.
(§3) All compounds were dissolved in DMSO and the reference drugs were dissolved in physiological saline to concentrations of 10 mM. Concentrations from 1 to 500 μM in the media recommended for the cell lines were prepared for the tests.
(§4) All of the synthesized derivatives were evaluated via the MTT assay. All cell lines were seeded into 96-well plates at a density of 10,000 cells per well. To allow the cells to adhere to the surface of the plates, they were incubated overnight before the application of the test compounds. […] The tests were performed for concentrations of 1, 5, 10, 25, 50, 100, 250, and 500 μM. The solutions of the test compounds were removed from the culture on the 96-well plates. […] The supernatant was then removed. The violet crystal was dissolved in isopropanol for 30 min by shaking. Absorbance was measured at 570 nm.
(§5) Biological assays were performed in three independent replicates, and each replicate used four samples. Three repetitions were made for the ELISA determinations. For the assessment of cytotoxicity, mathematical models were developed using the GraphPad PRISM software, based on which CC50 was determined. The values of CC50 were estimated based on nonlinear regression using the dependence of the biological effect on the molar concentrations of the compounds (four-parameter logistic model with Hill slope).

[2] = system: normal human dermal fibroblasts (NHDF); assay: MTT viability assay, NHDF; assay type: cell-based; conditions: tested 1–500 µM
Description: as §1, §2, §3, §4, §5

[3] = system: breast adenocarcinoma (MCF7); assay: MTT viability assay, MCF7; assay type: cell-based, human; conditions: for SI (selectivity index): CC50 NHDF / CC50 MCF7; for CC50: Homo sapiens
Description: as §1, §2, §3, §4, §5

[4] = system: primary colon adenocarcinoma (HT29); assay: MTT viability assay, HT29; assay type: cell-based, human; conditions: for CC50 ± SD: HT29, MTT; for CC50 ± SD / CC50: tested 1–500 µM; for SI (selectivity index): CC50 NHDF / CC50 HT29; for CC50: Homo sapiens, HT-29, HT29, MTT
Description: as §1, §2, §3, §4, §5

[5] = system: HT29 cells; parameters: method as in PMID 27002410; conditions: cited from earlier work
[6] = system: murine fibroblasts (L929); assay: MTT viability assay, L929; assay type: cell-based; conditions: tested 1–500 µM
Description: as §1, §2, §3, §4, §5

[7] = MTT viability assay, NHDF; assay type: cell-based, human; conditions: human, normal human dermal fibroblasts (NHDF), tested 1–500 µM
Description: as §1, §2, §3, §4, §5

[8] = system: lung adenocarcinoma (A549); assay: MTT viability assay, A549; assay type: cell-based, human
Description: as §1, §2, §3, §4, §5

[9] = system: metastatic colon adenocarcinoma (LoVo); assay: MTT viability assay, LoVo; assay type: cell-based, human
Description: as §1, §2, §3, §4, §5

[10] = system: A549; conditions: cited from earlier work
[11] = system: MCF7; conditions: cited from earlier work
[12] = system: HT29; conditions: cited from earlier work
[13] = system: LoVo; conditions: cited from earlier work
[14] = system: HT29 primary colon adenocarcinoma cells; assay: Detection of apoptosis (Annexin V FITC / propidium iodide); assay type: cell-based, human; parameters: unit not given here; conditions: 24 h
Description: as §1, with “All cell lines were grown in 5% CO2 at 95% humidity and 37 °C, with both morphology and confluence assessed twice per week. When” for “When”
HT29 primary colon adenocarcinoma cells were grown in 96-well plates for 24 h. The 5 selected derivatives were added at concentrations of 1, 2, 5, and 10 µM, and then incubated for 24 h. The mixture of Annexin V conjugated with fluorescein and propidium iodide in PBS with Mg^2+ and Ca^2+ ions (Thermo Fisher Scientific, Waltham, MA, USA) was then applied. The incubation lasted 20 min at 37 °C. Pictures were taken using a fluorescence microscope. Thirteen images were taken from each well using an EVOS FL fluorescence microscope, with three replications for each compound. The open ImageJ space was used to analyze the number of cells. The Thermo Fisher Dead Cell Apoptosis Kit with Annexin V FITC and Propidium Iodide (PI) detects phosphatidylserine extrusion in apoptotic cells using Annexin V conjugated with a green fluorescent FITC dye and dead cells stained by PI with red fluorescence.

[15] = system: HT29 cells; assay: Migration (scratch) assay; assay type: cell-based, human; conditions: control T 155558.2, control T0 544366.45
Description: The scratch test was performed to verify that the tested compound 3g could inhibit the formation of metastases by the HT29 cell line. The seeded HT29 cells were incubated until they formed a monolayer over the entire surface of the well. Then, a scratch test was performed by making a scratch in the monolayer and measuring its width—that is, To, amounting to 544,366.45 μm^2. Freshly prepared compounds were added to the HT29 cells at concentrations of 10, 25, 50, and 100 μM. Breeding plates were incubated for 24 h. The next day, scratch width was measured again using the ImageJ open-source platform. […] The lowest cellular overgrowth of HT29 culture occurred at the concentration of 100 μM for the compound. Compound 3g inhibited the migration of HT29 cells more strongly than the reference drugs, showing that it has the potential to inhibit metastasis. The width of the scratch after 24 h when no compound was applied to the cells was used as a control (T = 155,558.2 μm^2).
as §1, with “All cell lines were grown in 5% CO2 at 95% humidity and 37 °C, with both morphology and confluence assessed twice per week. When” for “When”
After seeding, HT29 cells were incubated until they formed a monolayer over the entire surface of the well. A scratch was made on the surface overgrown with cells, and then photomicrographs of the scratch were taken using the EVOS FL microscope. The freshly prepared compound 3g and the reference drugs were added at concentrations of 10, 25, 50, and 100 µM. Then, they were incubated for 24 h, and micrographs were performed at that time using the EVOS FL microscope. The scratch width was measured using the ImageJ open-source platform. The measurement of scratch width was also performed after 24 h without adding compounds.

[16] = system: HT29; parameters: method as in PMID 32759841; conditions: estimated based on data taken from reference; cited from earlier work

Cc1noc(N)c1-c1nc2c(NCCO)ncnc2o1 [Compound 3h, 2-(5-Amino-3-methylisoxazol-4-yl)-7-N-(2-hydroxyethyl)aminooxazolo[5,4-d]pyrimidine]
CC50 [1]: 146 ± 11.1 µM
CC50 ± SD [2]: Non-toxic
CC50 ± SD ([3]; MCF7, MTT, tested 1–500 µM): no cytotoxic activity
CC50 ± SD [4]: lack cytotoxic activity
melting point: 213 to 214 °C (dec.)

COc1ccc(CCN(C)CCCC(C#N)(c2ccc(OC)c(OC)c2)C(C)C)cc1OC (stereo not shown) [verapamil]
intracellular fluorescence intensity of Rh-123, increase ([5]; HT29, treatment 48 h): 1.77 fold
intracellular fluorescence intensity of Rh-123, increase ([5]; HT29, treatment 72 h): 1.9 fold

CCCCNc1ncnc2oc(-c3c(C)noc3N)nc12 [Compound 3d, 2-(5-Amino-3-methylisoxazol-4-yl)-7-N-butylaminooxazolo[5,4-d]pyrimidine]
CC50 ± SD [6]: no toxic activity; also recorded: Non-toxic
CC50 [7]: 126 ± 9.87 µM
SI (selectivity index) ([8]; CC50 NHDF / CC50 A549): 0.705
CC50 ([8]; Homo sapiens, A549, MTT, tested 1–500 µM): 179 ± 14.9 µM
SI (selectivity index) [3]: 0.944
CC50 ([3]; MCF7, MTT, tested 1–500 µM): 134 ± 14 µM
SI (selectivity index) ([9]; CC50 NHDF / CC50 LoVo): 0.558
CC50 ([9]; Homo sapiens, LoVo, MTT, tested 1–500 µM): 226 ± 8.28 µM
SI (selectivity index) [4]: 0.820
CC50 [4]: 154 ± 13.4 µM
melting point: 239 to 240 °C (dec.)

Cc1noc(N)c1-c1nc2c(NCCCO)ncnc2o1 [Compound 3i, 2-(5-Amino-3-methylisoxazol-4-yl)-7-N-(3-hydroxypropyl)aminooxazolo[5,4-d]pyrimidine]
CC50 [1]: 171 ± 22.8 µM
CC50 ± SD [2]: Non-toxic
SI (selectivity index) [3]: >>1
CC50 ([3]; MCF7, MTT, tested 1–500 µM): 251 ± 22.1 µM
CC50 ± SD [4]: lack cytotoxic activity
melting point: 225 to 226 °C (dec.)

Cc1ccc(Nc2nccc(N(C)c3ccc4c(C)n(C)nc4c3)n2)cc1S(N)(=O)=O [Pazopanib]
IC50 ([10]; ref 75, read-out: IC50 (converted)): 4 to 6 µM
IC50 [11]: 6.29 µM
IC50 ([12]; ref 77): > 5 µM

CNC(=O)c1cc(Oc2ccc(NC(=O)Nc3ccc(Cl)c(C(F)(F)F)c3)c(F)c2)ccn1 [Regorafenib]
IC50 [13]: 2 µM
IC50 ([12]; ref 66): 2.75 ± 0.18 µM

CCN(CC)CCNC(=O)c1c(C)[nH]c(/C=C2\C(=O)Nc3ccc(F)cc32)c1C [Sunitinib]
IC50 ([10]; ref 78, read-out: IC50 (converted)): 6.98 µM
IC50 [11]: 7.3 µM
IC50 [13]: 4.18 ± 0.27 µM
IC50 ([12]; ref 78): 4.89 µM
IC50 ([12]; ref 79): 2.25 µM

COc1cc2c(Nc3ccc(Br)cc3F)ncnc2cc1OCC1CCN(C)CC1 [Vandetanib]
IC50 ([10]; ref 72, read-out: IC50 (converted)): 2.7 ± 0.5 µM
IC50 [11]: 12.2 ± 0.28 µM
IC50 [13]: 3.5 ± 0.9 µM
IC50 ([12]; ref 74): 10 ± 0.4 µM

CNC(=O)c1cc(Oc2ccc(NC(=O)Nc3ccc(Cl)c(C(F)(F)F)c3)cc2)ccn1 [Sorafenib]
IC50 ([10]; ref 80, read-out: IC50 (converted)): 5.62 ± 2.13 µM
IC50 [13]: 31 µM
IC50 ([12]; ref 80): 17.3 ± 3.8 µM

CCNc1ncnc2oc(-c3c(C)noc3N)nc12 [Compound 3b, 2-(5-Amino-3-methylisoxazol-4-yl)-7-N-ethylaminooxazolo[5,4-d]pyrimidine]
CC50 [1]: 235 ± 11.5 µM
CC50 ± SD [2]: Non-toxic
CC50 ± SD ([8]; A549, MTT, tested 1–500 µM): no activity
SI (selectivity index) [3]: >>1
CC50 ([3]; MCF7, MTT, tested 1–500 µM): 193 ± 16.9 µM
SI (selectivity index) [4]: >>1
CC50 [4]: 194 ± 15.4 µM
melting point: 253 to 254 °C (dec.)

COc1cc2nccc(Oc3ccc(NC(=O)C4(C(=O)Nc5ccc(F)cc5)CC4)cc3)c2cc1OC [Cabozantinib]
IC50 ([10]; ref 67, read-out: IC50 (converted)): 9.52 ± 0.91 µM
IC50 ([10]; ref 68, read-out: IC50 (converted)): 15.2 µM
IC50 [11]: 14.3 ± 0.87 µM
IC50 ([12]; ref 67): 11.5 ± 1.1 µM

N.N.[Cl][Pt][Cl] [Cisplatin, reference compound]
apoptosis mean ([14]; 1 μM): 4.45
late apoptosis mean ([14]; 1 μM): 26.25
necrosis mean ([14]; 1 μM): 7.81
percent live (viable) cells ([14]; 1 μM): 50.30
apoptosis mean ([14]; 2 μM): 7.18
late apoptosis mean ([14]; 2 μM): 24.44
necrosis mean ([14]; 2 μM): 4.42
percent live (viable) cells ([14]; 2 μM): 52.47
apoptosis mean ([14]; 5 μM): 6.28
late apoptosis mean ([14]; 5 μM): 29.59
necrosis mean ([14]; 5 μM): 3.95
percent live (viable) cells ([14]; 5 μM): 59.69
apoptosis mean ([14]; 10 μM): 2.34
late apoptosis mean ([14]; 10 μM): 16.55
necrosis mean ([14]; 10 μM): 32.35
percent live (viable) cells ([14]; 10 μM): 48.76
scratch width after 24 h, mean ([15]; 10 μM): 171562.8 μm^2
scratch width after 24 h, mean ([15]; 25 μM): 209621 μm^2
scratch width after 24 h, mean ([15]; 50 μM): 216006.4 μm^2
scratch width after 24 h, mean ([15]; 100 μM): 253653.8 μm^2
CC50 [16]: 16.9 ± 1.94 µM

COc1cc2nccc(Oc3ccc(NC(=O)Nc4cc(C)on4)c(Cl)c3)c2cc1OC [Tivozanib]
IC50 ([10]; ref 64, read-out: IC50 (converted)): 0.19 ± 0.04 µM
IC50 [11]: 0.25 ± 0.03 µM
